Assay results reported in US20150224094A1, “ADMINISTRATION OF ACETYLCHOLINESTERASE INHIBITORS TO MITIGATE NEUROTOXIN-INDUCED PARALYSIS AND RESIDUAL NEUROMUSCULAR BLOCKADE” (priority 2012, published 2015).
“And” between values parts separate entries of the source, which are not always exact repeats. Identical values can stand only once. “Also recorded” adds a separate entry of the source.

Legend:
[1] = Intra-nasal administration of glycopyrrolate and neostigmine, tolerability in a healthy volunteer
Description: In this experiment, the effect of intra-nasal administration of an mAChR inhibitor (glycopyrrolate) was determined using a healthy volunteer. 5 cc of glycopyrrolate (0.2 mg/mL) in sterile water was instilled in one nostril using an LMA sponge atomizer. […] 5 cc of 0.2 mg/mL glycopyrrolate mixed in DMSO was instilled in the other nostril.

[2] = system: mivacurium-induced neuromuscular blockade; experiment: Reversal of experimental mivacurium paralysis in a human by intranasal neostigmine aerosol
Description: Intravenous mivacurium is administered to a subject at concentrations of 5-200 mcg/kg/min to induce a safe, stable, low level neuromuscular block for a medical procedure. After completion of the procedure a total of 4 to 30 mg of neostigmine in divided doses—each dose separated by 15 minutes ([…] a 5% or a 6% solution) is administered intra-nasally and the regression of the block is followed quantitatively using acceleromyography or clinical measures such as the improvement in muscle strength as measured by thumb adduction, handgrip strength, teeth clenching, head raising and/or swallowing.
Neuromuscular block was quantified by using the train-of-four (TOF) ratio at the left adductor pollicis (AP) muscle measured by acceleromyography and as described previously. When the subject had significant oropharyngeal weakness and met electrophysiological criteria for Level 3 block a single dose of […] IV glycopyrrolate was administered to prevent bradycardia. Five minutes later 6% neostigmine dissolved in sterile water was administered using a primed atomizer (LMA MAD Nasal Device, LMA Corporation North America, San Diego, Calif.). A total dose of 27.6 mg, 0.37 mg/kg with half the volume insufflated in each nostril was given and the subject was left undisturbed for a total period of 10 min (Shaded area, FIG. 2) except for acceleromyographic recording. After the final set of measurements, the mivacurium infusion was terminated and neuromuscular function was allowed to return spontaneously. Emergency equipment and drugs including IV neostigmine and edrophonium (for reversal of mivacurium block) and glycopyrrolate and atropine (for early treatment of neostigmine toxicity) were at the bedside at all times.
Clinical measures of muscle function emphasized those that would be seen in the setting of neurotoxic envenomation that could be readily measured in out-of-hospital settings. The clinical assessments of muscle function were as follows: visual acuity, ease of swallowing, ability to protrude the tongue, diction, and ability to raise the head completely off the bed for more than 5 sec (neck flexion) with a postal scale (WeighMax, Industrial City, Calif., USA) placed under the subjects head to confirm complete elevation and peak respiratory flow measured using a Tru-Zone Peak Flow Meter (Monaghan, Plattsburg, N.Y.). […] The subject was blinded to all clinical and acceleromyographic data as well as to the mivacurium infusion rate and the levels of neuromuscular blockade.
The mivacurium infusion was maintained with unchanged infusion rate, enabling the investigators to determine the characteristics of neostigmine effect. Analysis of TOF ratios were made using TOFMON software (Schering-Plough Corporation, Kenilworth, N.J.) and considered stable if the values obtained 10 min apart differed less than 5% and accounting for repeated measures. Student's t-test results were calculated and reported as average values, standard deviation (SD), and 95% confidence intervals (95% CI).

[3] = system: krait bite (Bungarus sp.); experiment: Case report: intranasal neostigmine aerosol for residual weakness after suspected krait bite; assay type: in vivo, human; conditions: single dose 0.5 cc aqueous 5% neostigmine intranasal aerosol
Source text: A healthy person was sleeping on a mud platform in their village and was awakened by a snake biting their left forearm. Within minutes, they developed headache and throat discomfort. They were transported by their family from the local clinic to the Emergency Department, conscious, but with progressive weakness. On physical examination, they had complete loss of gag reflex and rapidly worsening shortness of breath. There was no fang mark, ecchymosis or local swelling, and there were no other signs of coagulopathy such as bleeding gums or hematuria. They were unable to open their eyes and became unresponsive as emergent intubation was being performed without sedation. Polyvalent anti-snake venom (ASV) was administered concurrently. Based on the pattern of symptoms, lack of coagulopathy, normal renal function and normal bleeding and clotting times as well as lack of physical evidence of snakebite, krait bite (Bungarus sp.) was suspected. Twenty-four hours after ASV therapy and continuous mechanical ventilation, they were awake and alert, but with residual weakness, including profound ptosis, bilateral 6th nerve palsies and inability to lift their neck. […] Intranasal neostigmine was administered every four hours thereafter with IV atropine as prophylaxis against cholinergic toxicity. […]

[4] = system: Naja naja (Indian cobra) venom; experiment: Intranasal neostigmine in experimental Naja naja envenomation in mice; assay type: in vivo
Description: After pilot studies to assess the potency of reconstituted N. naja venom, 20 mice (21-28 g) were pseudo-randomized to receive IP injections of N. naja venom (approximately 2.5×LD50 for mice, Total N=20).
After 10 minutes, 15 animals received 5 microliters of 0.5 mg/mL neostigmine by nasal administration. Animals were observed continuously for 12 hours and assessed for signs of toxicity including respiratory distress, loss of spontaneous locomotor activity with the endpoint being death. Surviving animals were euthanized after 12 hours. Comparison of time to euthanasia across groups was performed and represented in Kaplan-Meier curves
Swiss albino mice were envenomed with cobra toxin (Naja naja) by intraperitoneal injection at doses >2.5×the LD50 and that killed 100% of untreated mice “LD100”. Intranasal neostigmine was given 10 minutes after envenomation to determine if this intervention could delay or treat the envenomation. 10/15 mice recovered completely and were still behaving normally >12 hours after envenoming. 5/15 mice in the treatment group died compared to 5/5 (100%) of the envenomation group. Mice were treated only once, with no attempt to re-treat with intranasal neostigmine.

myasthenic patients = conditions: cited from earlier work
[5] = 3 cc of 1 mg/mL neostigmine into one nostril, after 2nd dose of glycopyrrolate
[6] = intranasal neostigmine, constant mivacurium infusion

C[N+]1(C)CCC(OC(=O)C(O)(c2ccccc2)C2CCCC2)C1 (stereo not shown) [glycopyrrolate]
effect on heart rate ([1]; 5 cc glycopyrrolate 0.2 mg/mL in sterile water, one nostril, LMA sponge atomizer): no effect | effect on heart rate ([1]; 5 cc of 0.2 mg/mL glycopyrrolate mixed in DMSO, other nostril): no notable effect | effect on nasal membranes ([1]; intranasal glycopyrrolate, noted prior to neostigmine): mild drying | reversal of neostigmine-associated bradycardia ([2]; IV glycopyrrolate): easily reversed

CN(C)C(=O)Oc1cccc([N+](C)(C)C)c1 [neostigmine]
6th nerve palsies [3]: almost complete recovery | time to complete resolution of ptosis ([3]; 24 h after ASV): ≤ 30 min | mice whose lives were prolonged or saved ([4]; 5 uL of 0.5 mg/mL IN neostigmine, 2.5× the 100% lethal dose (LD100) of Naja naja venom): 5/5 | effect on survival time ([4]; 5 uL of 0.5 mg/mL IN neostigmine, of Naja naja): trended toward prolonging the lives | time to death or euthanasia ([4]; IN neostigmine N=15, controls 193 minutes): 553 min | condition of surviving animals ([4]; IN neostigmine after N. naja venom): completely normal by 6 hours | mice that died in the treatment group ([4]; IN neostigmine, 5/5 died in envenomation group): 5/15 | animals surviving / recovered of treated ([4]; single dose 5 uL of 0.5 mg/mL IN neostigmine 10 min after IP N. naja venom (approx. 2.5×LD50, 100% lethal in controls), 12 h observation): 10 of 15 and 10/15 | survival ([4]; single dose IN neostigmine 10 min after IP N. naja venom, N=15): 67% | effect on heart rate [1, 5]: no effect | salivation [1, 5]: no increase | local tolerability of intranasal spray ([2]; 6% neostigmine by atomizer): no stinging sensation or irritation | Normalized TOF ratios (mean ± SD), adductor pollicis ([2]; after intranasal 6% neostigmine 27.6 mg (0.37 mg/kg), constant mivacurium infusion 2.5 mcg/kg/min, pre-neostigmine 0.56): 0.64±0.03 | Peak flow of baseline by the termination of the mivacurium infusion ([2]; after intranasal neostigmine, 135 min): 95% | peak improvement adductor pollicis TOF ratio ([2]; after intranasal neostigmine, constant mivacurium infusion): 0.70 | time to feeling of facial and lingual muscles rearranging and tightening ([2]; after receiving intranasal neostigmine): ≤ 5 min | time to full recovery of neck flexion ([2]; first test of neck flexion following neostigmine administration): 5 min | clinically important muscular deficits / neuromuscular blockade [2, 6]: quickly relieved all clinically important muscular deficits; also recorded: antagonized the neuromuscular blockade | time to full recovery of ability to swallow after neostigmine administration [2, 6]: ≤ 10 min | bradycardia and concurrent symptoms ([2]; just prior to stopping the mivacurium infusion and after): asymptomatic bradycardia | Peak Flow, average after neostigmine, of baseline ([2]; response to intranasal neostigmine, 72% under stable blockade): 91% | Visual Acuity ([2]; response to intranasal neostigmine, >20/200 under stable blockade): Steady improvement and 20/20 | Ease of Swallowing ([2]; response to intranasal neostigmine, Difficult under stable blockade): Easy | Tongue Protrusion ([2]; response to intranasal neostigmine, Moderately Difficult under stable blockade): Easy | Diction ([2]; response to intranasal neostigmine, Poor under stable blockade): Improved | Jaw Ptosis ([2]; response to intranasal neostigmine, Present under stable blockade): None | Neck Flexion (Head Raise >5 s) ([2]; response to intranasal neostigmine, Unable under stable blockade): Easy | signs or symptoms of muscarinic-mediated toxicity ([2]; while the mivacurium infusion was running): no signs or symptoms | clinical effect in myasthenic patients (myasthenic patients; 6% neostigmine methylsulfate intranasal, doses spaced by 15 minutes, alternating nostrils): salutary effects usually after the first dose | puffs tolerated without ill effect (myasthenic patients; intranasal neostigmine at 15 minute intervals): up to 5 puffs
